In assay [1] the test system is EGF-induced tyrosine phosphorylation in A431 cells. In words: Inhibition of cellular tyrosine autophosphorylation (VAP assay). In kind it is cell-based. As to conditions: Homo sapiens, A-431, 10 min, read-out: VAP IC50. The procedure:
Inhibition of cellular tyrosine autophosphorylation (VAP assay)
EGF is able to induce the phosphorylation in tyrosine of a specific set of intracellular proteins including EGFR itself. This increase in tyrosine phosphorylation was measured using the Vectastain-ABC-AP kit (Vector Laboratories) following the manufacturer's instructions. Briefly, 2×10^4 A431 cells per well were plated into a microtiter plate and incubated for 3 days at 37° C./5% CO2 until the cultures reached confluency. Cell monolayers were washed with PBS and covered with fresh medium containing 0.1 bovine serum albumin (BSA). Serial dilution of test compounds were added 2 h before the addition of 100 ng/ml EGF; after 10 min stimulation the culture medium was withdrawn, cells were washed 2 times with PBS and fixed for 10 min with cold methanol (-20° C.). After fixation […] of blocking solution (3% BSA in PBS, 0.2% Tween 20, 1% normal horse serum) were added for 1 h at 37° C. Blocking solution was replaced with 3% BSA in PBS containing the antiphosphotyrosine antibody 4G10 (UBI) diluted 1:30000 and incubated for 1 h. […] Reaction was developed for 30 min in the dark and the plates were read at 405 nm.

A further assay deals with T1, EGFR (Homo sapiens, UniProt P00533).
T1 construct: A431 crude membrane extracts as source of the receptor; endogenous in cells; host or cells: A431 human epidermoid carcinoma cells, crude membranes
In words: EGFR-Autophosphorylation Assay (AMIKA assay). Type of assay: biochemical. The following applies: A431 membranes; for inhibition at 1 µM: 1 μM compound; for inhibition at 1 µM / inhibition at 10 µM: EGF-stimulated; for inhibition at 10 µM: 10 μM compound; for IC50: EGF 200 nM pre-treatment. The procedure: EGFR-Autophosphorylation Assay (AMIKA assay) The EGFR autophosphorylation was assayed using A431 crude membrane extracts as source of the receptor. Membrane purification: Membranes were prepared as reported by A. Levitzky et al. (Methods in Enzymology 201, 347 (1991) with minor modifications and adapting the method to the A431 human epidermoid carcinoma cell line. Briefly, low density cells growing in RPMI 1640 plus 10% foetal calf serum were detached using 1 mM EDTA in phosphate buffer saline (PBS) and lysed in cold Lysing buffer (1 ml/10^6 cells) (20 mM HEPES pH 7.6, 10 mM NaCl, 2 mM EDTA, […], 1 mM PMSF). Cells were homogenized by 10 strokes in Dounce homogenizer. Nuclei and debris were removed by low speed centrifugation. Membranes were pelletized by ultracentrifugation (1 h, 100000×g) and resuspended in cold HNG buffer (50 mM HEPES pH 7.6, 125 mM NaCl, 10% glycerol). Protein concentration, determined by Pierce BCA method, was adjusted to 1.5-2 mg/ml. Aliquots were stored at -80° C. Determination of IC50 : […] The reaction was stopped with […] solution. The samples were heated 5 min at 95° C. and submitted to SDS-PAGE (7.5% acrylamide gel). Gels were fixed in 40% methanol:10% acetic acid for 1 h and washed overnight with 20% methanol:7% acetic acid. After 15 min in 50% methanol:2% glycerol gels were dried and exposed overnight. Bands corresponding to EGFR were excised from the gels and counted in a β-counter.

The test system of the next assay is A431 cells. Kind of assay: SRB-Antiproliferative assay (A431 assay). Type of assay: cell-based. As to conditions: Homo sapiens, A-431, 72 h, read-out: A431 IC50. The procedure:
SRB-Antiproliferative assay (A431 assay)
A431 cells were seeded into 96-well microtiter plates (5000 cells/cm^2) and incubated overnight at 37° C./5% CO2. Compounds dissolved in DMSO were added in serial dilution and plates were incubated for 3 days at 37° C./5% CO2. Cells were fixed with cold TCA (10% final concentration) and stained with 0.4% Sulforhodamine B dye in 1% acetic acid for 30 min.
Background: The SRB assay estimates cell density from bound dye.

Molecules are shown by their SMILES. Like-named read-outs stand apart in the source and are kept apart here.

T1 sequence (P00533 25-1210): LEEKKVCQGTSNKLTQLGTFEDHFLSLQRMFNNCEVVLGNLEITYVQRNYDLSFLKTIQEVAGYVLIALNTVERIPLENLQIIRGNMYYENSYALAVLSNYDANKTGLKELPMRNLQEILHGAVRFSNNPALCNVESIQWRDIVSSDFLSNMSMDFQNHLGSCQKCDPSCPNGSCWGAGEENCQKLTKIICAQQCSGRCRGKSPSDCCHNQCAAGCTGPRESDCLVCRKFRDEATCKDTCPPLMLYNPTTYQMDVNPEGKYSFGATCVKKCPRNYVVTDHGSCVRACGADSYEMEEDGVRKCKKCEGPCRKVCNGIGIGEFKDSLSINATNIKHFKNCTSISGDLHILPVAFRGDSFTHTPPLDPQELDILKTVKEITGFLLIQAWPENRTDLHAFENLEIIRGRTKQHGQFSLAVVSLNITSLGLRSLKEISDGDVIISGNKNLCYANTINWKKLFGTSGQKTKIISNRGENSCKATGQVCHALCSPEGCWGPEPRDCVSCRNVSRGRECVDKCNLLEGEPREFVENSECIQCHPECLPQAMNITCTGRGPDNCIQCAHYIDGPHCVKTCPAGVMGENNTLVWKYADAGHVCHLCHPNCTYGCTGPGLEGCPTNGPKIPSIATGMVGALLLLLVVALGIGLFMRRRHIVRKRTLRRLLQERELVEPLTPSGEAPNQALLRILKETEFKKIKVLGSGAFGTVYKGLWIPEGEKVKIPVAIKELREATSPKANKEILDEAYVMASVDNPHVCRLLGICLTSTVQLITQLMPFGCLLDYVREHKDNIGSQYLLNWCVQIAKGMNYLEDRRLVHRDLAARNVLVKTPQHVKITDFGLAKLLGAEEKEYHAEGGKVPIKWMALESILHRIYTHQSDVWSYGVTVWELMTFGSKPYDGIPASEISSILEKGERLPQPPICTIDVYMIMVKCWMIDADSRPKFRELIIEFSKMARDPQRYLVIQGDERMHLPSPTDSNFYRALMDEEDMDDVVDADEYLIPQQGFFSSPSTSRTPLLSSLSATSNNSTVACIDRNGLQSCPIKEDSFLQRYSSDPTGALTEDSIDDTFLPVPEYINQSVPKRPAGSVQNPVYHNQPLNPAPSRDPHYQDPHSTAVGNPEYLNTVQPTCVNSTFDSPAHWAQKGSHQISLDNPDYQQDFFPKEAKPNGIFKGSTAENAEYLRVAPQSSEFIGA

In the case of `COc1cc2ncnc(N[C@H](COC(C)=O)c3ccccc3)c2cc1OC` [FCE 29772, (S)-4-[α-(acetoxymethyl)benzylamino]-6,7dimethoxyquinazoline], the figures for the IC50 (in assay [1]; on EGFR; in the assay with A431 cells) were 1310 nM, 81 nM and 5300 nM, respectively. This compound yielded an inhibition at 1 µM against EGFR of 94.9%. Also, on EGFR, 10 µM produced 98% inhibition.

In the case of `COc1cc2ncnc(N[C@H](CO)c3ccccc3)c2cc1OC` [FCE 29771, (S)-4-[α-(hydroxymethyl)benzylamino]-6,7dimethoxyquinazoline], the IC50 in assay [1] (A431 cells, 100 ng/ml EGF, 10 min stimulation) came to 800 nM. On EGFR, the inhibition at 1 µM was found to be 93.8%, the inhibition at 10 µM is 98.3% and the IC50 is 24 nM. In the assay with A431 cells (A431 cells, 3 days, SRB), the IC50 was greater than 1560 nM.

The term IC50 denotes the concentration that gives 50% inhibition. For orientation: inhibition means how much of the control response was suppressed. A higher inhibition goes with strong suppression.
